Experimental data as given in article doi:10.1101/390401v1, “Flux balance analysis predicts NADP phosphatase and NADH kinase are critical to balancing redox during xylose fermentation in Scheffersomyces stipitis” (biorxiv, 2018).

Molecular target: T1, K. phaffii Adh2p (Komagataella pastoris, UniProt A0A1B2JBQ8)
T1 construct: gene ADH2; purified natively from wild-type K. phaffii; 40 kDa band
T1 sequence (A0A1B2JBQ8 1-350): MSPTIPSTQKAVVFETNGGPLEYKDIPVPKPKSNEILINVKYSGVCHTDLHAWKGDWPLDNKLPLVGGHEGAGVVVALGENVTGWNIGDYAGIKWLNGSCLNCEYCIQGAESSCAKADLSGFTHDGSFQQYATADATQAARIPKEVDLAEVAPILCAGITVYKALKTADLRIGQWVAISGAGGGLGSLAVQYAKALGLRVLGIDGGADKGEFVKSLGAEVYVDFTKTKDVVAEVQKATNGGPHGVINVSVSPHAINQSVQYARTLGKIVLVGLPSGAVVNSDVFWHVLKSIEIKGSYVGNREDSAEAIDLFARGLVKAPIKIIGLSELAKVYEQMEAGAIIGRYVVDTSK
Assay: NADH and NADPH oxidation at […] nm
Format: biochemical
Conditions: 0.01-10 mM butyraldehyde, NADH or NADPH, 1 mM ZnCl2, 50 mM HEPES pH 7.5, 30 C

NC(=O)C1=CN([C@@H]2O[C@H](COP(=O)(O)OP(=O)(O)OC[C@H]3O[C@@H](n4cnc5c(N)ncnc54)[C@H](O)[C@@H]3O)[C@@H](O)[C@H]2O)C=CC1 [NADH]
NADH and NADPH oxidation at 340 nm: Both NADH and NADPH reduced butyraldehyde

CCCC=O [butyraldehyde]
NADH and NADPH oxidation at 340 nm: Both NADH and NADPH reduced butyraldehyde
